Reference: US9394555B2, “Compositions comprising a polypeptide having cellulolytic enhancing activity and a dioxy compound and uses thereof” (priority 2010, dated 2016)

What was measured:
Assay type in all cases: biochemical
[1] = molecular target: T1, T. aurantiacus GH61A polypeptide (Thermoascus aurantiacus, UniProt G3XAP7, N13Y); test: Microcrystalline cellulose conversion assay II (Examples 10, 11), T. reesei CEL7A cellobiohydrolase I + A. oryzae CEL3A beta-glucosidase; settings: 72 hours, 50° C.
Method: A 5% microcrystalline cellulose slurry was prepared by addition of 2.5 g of AVICEL® PH101 to a graduated 50 ml screw-cap conical tube followed by approximately 40 ml of deionized water. Each conical tube was then mixed thoroughly by shaking/vortexing, and adjusted to 50 ml total with deionized water and mixed again. For samples containing dioxy compounds, a similar slurry was prepared by the addition of 100 mg of solid dioxy compound and 2.5 g of AVICEL® PH101 to a graduated 50 ml screw-cap conical tube followed by approximately 40 ml of deionized water. Each conical tube was then mixed thoroughly by shaking/vortexing, and adjusted to 50 ml total with deionized water and mixed again.
The dioxy compounds assayed include caffeic acid, dichlorophenolindophenol (DCPIP), ethyl gallate, gallic acid, 3,4-dihydroxybenzoic acid, pyrocatechol, pyrogallol, sinapinic acid (3,5 dimethoxy-4-hydroxy cinnamic acid), and tannic acid.
In all cases, the contents of the tube (5% microcrystalline cellulose slurry with or without 0.2% dioxy compound) were then quickly transferred to a 100 ml beaker and stirred rapidly with a magnetic stirrer. Five hundred μl aliquots of the 5% AVICEL® slurry were pipetted into wells of a 2.0 ml 96-deepwell plate (Axygen, Union City, Calif.) using a 1000 μl micropipette with a wide aperture tip (end of tip cut off about 2 mm from the base). One hundred μl of deionized water and 300 μl of 3.33 mM MnSO4-500 mM sodium acetate pH 5 were then added to each well. Enzyme mixtures were prepared and then added simultaneously to all wells in a volume of 100 μl, for a total of 1 ml in each reaction. […] All experiments reported were performed in triplicate.
Primary analysis of the hydrolysis reactions was performed using an AGILENT® 1100 HPLC with CHEMSTATION® software equipped with an AMINEX™ HPX-87H column. After approximately 4 days, the deep-well plate was removed from the incubator and chilled overnight to 4° C. The plate was then mixed well by inversion and briefly centrifuged at 52×g in a SORVALL® RT7 centrifuge for 10 seconds. Samples were then mixed by pipetting, and 200 μl from each well were transferred to a MULTISCREEN® HV centrifuge filter plate assembly. The centrifuge filter plate assembly was centrifuged at 2000 rpm in a SORVALL® RT7 centrifuge for 20 minutes. […] Sugars were detected using a refractive index detector with quantification by integration compared to purified sugar standards.
All HPLC data processing was performed using MICROSOFT EXCEL™ software. […] In this assay only glucose was measured since beta-glucosidase was at high levels in all samples but the controls. The degree of cellulose conversion was calculated using Equation 1. Triplicate data points were averaged and standard deviation was calculated.
The microcrystalline cellulose hydrolysis assay was performed as described in Example 10.
Data were collected and analyzed, as described in Example 10, after 72 hours of incubation at 50° C.

[2] = molecular target: T2, Aspergillus oryzae CEL3A beta-glucosidase (Aspergillus oryzae, UniProt Q2UUD6); test: Variable pH PASC conversion assay (Examples 29, 30) without GH61 polypeptide; settings: gallic acid 0.2% w/w + Aspergillus oryzae CEL3A beta-glucosidase (10 mg/g), no GH61, 72 hours, 50° C.
T2 construct: made in house

[3] = molecular target: Trichoderma reesei GH61B polypeptide (Trichoderma reesei, UniProt Q7Z9M7); test: Variable pH PASC conversion assay (Examples 29, 30) with Trichoderma reesei GH61B polypeptide; settings: gallic acid 0.2% w/w + Trichoderma reesei GH61B polypeptide (10 mg/g) + beta-glucosidase (10 mg/g), 72 hours, 50° C.
[4] = molecular target: T1, T. aurantiacus GH61A polypeptide; test: Microcrystalline cellulose conversion assay I (Examples 8, 9) with T. aurantiacus GH61A polypeptide; settings: T. aurantiacus GH61A polypeptide (10 mg per g cellulose) + endoglucanase II + beta-glucosidase (5 mg/g each), no dioxy compound, 96 hours
Method: A 5% microcrystalline cellulose slurry was prepared by addition of 2.5 g of AVICEL®PH101 (Sigma-Aldrich, St. Louis, Mo., USA) to a graduated 50 ml screw-cap conical tube followed by 15 ml of 1 M sodium acetate pH 5 and 1 ml of 100 mM MnSO4 and approximately 20 ml of deionizer water. Each conical tube was then mixed thoroughly by shaking/vortexing, and adjusted to 50 ml total with deionized water and mixed again. Contents of the tube were then quickly transferred to a 100 ml beaker and stirred rapidly with a magnetic stirrer. […]
After approximately 4 days, the deep-well plate was removed from the incubator and chilled overnight to 4° C. […] Sugars were detected using a refractive index detector (Agilent Technologies, Inc., Santa Clara, Calif., USA) with quantification by integration compared to purified sugar standards.
In this assay only glucose was measured since beta-glucosidase was at high levels in all samples but the controls.
A limit digest was performed to determine the total concentration accessible glucose equivalents using 100 mg of T. reesei cellulase (CELLIC™ CTec, Novozymes A/S, Bagsvaerd, Denmark) per gram cellulose, Triplicate data points were averaged and standard deviation was calculated.

Chain of Trichoderma reesei GH61B polypeptide (Q7Z9M7 20-249): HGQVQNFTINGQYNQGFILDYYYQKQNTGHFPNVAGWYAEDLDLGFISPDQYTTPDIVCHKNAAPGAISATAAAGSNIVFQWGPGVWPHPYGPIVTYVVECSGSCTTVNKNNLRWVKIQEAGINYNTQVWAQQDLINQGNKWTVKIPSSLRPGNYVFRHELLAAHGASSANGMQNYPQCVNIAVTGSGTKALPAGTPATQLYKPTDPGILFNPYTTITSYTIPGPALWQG
T2 sequence (Q2UUD6 20-861): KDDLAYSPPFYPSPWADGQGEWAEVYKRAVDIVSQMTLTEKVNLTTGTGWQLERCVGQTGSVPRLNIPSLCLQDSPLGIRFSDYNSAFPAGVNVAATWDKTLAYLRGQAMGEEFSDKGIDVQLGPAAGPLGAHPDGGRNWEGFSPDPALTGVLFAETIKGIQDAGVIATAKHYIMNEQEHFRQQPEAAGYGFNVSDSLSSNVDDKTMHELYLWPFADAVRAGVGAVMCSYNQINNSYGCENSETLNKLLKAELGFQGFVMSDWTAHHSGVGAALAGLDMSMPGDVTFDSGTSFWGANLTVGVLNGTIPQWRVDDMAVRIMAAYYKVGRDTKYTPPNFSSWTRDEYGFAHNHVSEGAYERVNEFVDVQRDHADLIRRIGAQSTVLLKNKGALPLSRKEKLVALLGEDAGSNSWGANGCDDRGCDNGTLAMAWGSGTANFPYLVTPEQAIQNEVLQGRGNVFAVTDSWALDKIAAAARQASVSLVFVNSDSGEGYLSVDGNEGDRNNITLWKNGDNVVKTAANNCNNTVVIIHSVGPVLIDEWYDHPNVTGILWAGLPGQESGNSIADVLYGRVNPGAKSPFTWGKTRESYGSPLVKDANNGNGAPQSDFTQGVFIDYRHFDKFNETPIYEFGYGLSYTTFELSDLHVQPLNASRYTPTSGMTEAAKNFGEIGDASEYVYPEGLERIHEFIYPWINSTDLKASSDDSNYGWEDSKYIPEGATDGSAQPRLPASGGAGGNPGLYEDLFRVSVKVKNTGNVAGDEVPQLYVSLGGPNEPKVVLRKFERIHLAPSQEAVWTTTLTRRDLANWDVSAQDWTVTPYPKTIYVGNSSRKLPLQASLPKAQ

| Molecule | conversion (hydrolysis) of the microcrystalline cellulose ([1]; dioxy compound 0.1% w/w alone, no enzymes) | conversion of phosphoric acid swollen cellulose ([2]; pH 4) [%] | conversion of phosphoric acid swollen cellulose ([2]; pH 5) [%] | conversion of phosphoric acid swollen cellulose ([2]; pH 6) [%] | conversion of phosphoric acid swollen cellulose ([2]; pH 7.5) [%] | conversion of phosphoric acid swollen cellulose ([3]; pH 4) [%] | conversion of phosphoric acid swollen cellulose ([3]; pH 5) [%] | conversion of phosphoric acid swollen cellulose ([3]; pH 6) [%] | conversion of phosphoric acid swollen cellulose ([3]; pH 7.5) [%] | conversion of the microcrystalline cellulose ([1]; T. aurantiacus GH61A polypeptide (10 mg/g) + cellobiohydrolase I + beta-glucosidase (5 mg/g each), no dioxy compound) [%] | conversion of microcrystalline cellulose ([4]; 50° C.) [%] | conversion of microcrystalline cellulose ([4]; 60° C.) [%] |
| --- | --- | --- | --- | --- | --- | --- | --- | --- | --- | --- | --- | --- |
| O=C(O)c1cc(O)c(O)c(O)c1 [gallic acid] | no significant hydrolysis | 1.6±0.2 | 2.0±0.7 | 1.2±0.5 | 1.9±1.2 | 13.6±0.2 | 15.9±0.6 | 12.7±0.4 | 3.9±1.0 |  |  |  |
| T. aurantiacus GH61A polypeptide: GH61A polypeptide having cellulolytic enhancing activity (SEQ ID NO: 14), recombinantly produced in Aspergillus oryzae JaL250 (protein, listed as Thermoascus aurantiacus) MSFSKIIATAGVLASASLVAGHGFVQNIVIDGKYYGGYLVNQYPYMSNPPEVIAWSTTATDLGFVDGTGYQTPDIICHRGAKPGALTAPVSPGGTVELQWTPWPDSHHGPVINYLAPCNGDCSTVDKTQLEFFKIAESGLINDDNPPGIWASDNLIAANNSWTVTIPTTIAPGNYVLRHEIIALHSAQNQDGAQNYPQCINLQVTGGGSDNPAGTLGTALYHDTDPGILINIYQKLSSYIIPGPPLYTG |  |  |  |  |  |  |  |  |  | 21.4±0.5 | 2.2±0.1 | 2.6±0.1 |
